Test results published in patent US8212014B2, “Artificial base pairs and uses thereof” (Riken, priority 2005, dated 2012).
Several values for one entry are separate records, joined by “and”; a condition that tells them apart may be missing. Equal entries are not always repeated. Where two headings read alike, the source gives them in different places. [s] = deoxynucleotide carrying the publication's artificial base s, incorporated via its phosphoramidite; [v] = deoxynucleotide carrying the publication's artificial base v, incorporated via its phosphoramidite

Experiments:
T7 RNA polymerase [1] = molecular target: T1, T7 RNA polymerase (Escherichia phage T7, UniProt P00573); conditions: natural NTPs 1 mM, sTP 1 mM; for relative yield of full-length (17-mer) transcript: template DNA containing one unnatural base, natural-base template set to 100%; for full-length transcript formation: template containing two unnatural bases
T1 sequence (P00573 whole entry): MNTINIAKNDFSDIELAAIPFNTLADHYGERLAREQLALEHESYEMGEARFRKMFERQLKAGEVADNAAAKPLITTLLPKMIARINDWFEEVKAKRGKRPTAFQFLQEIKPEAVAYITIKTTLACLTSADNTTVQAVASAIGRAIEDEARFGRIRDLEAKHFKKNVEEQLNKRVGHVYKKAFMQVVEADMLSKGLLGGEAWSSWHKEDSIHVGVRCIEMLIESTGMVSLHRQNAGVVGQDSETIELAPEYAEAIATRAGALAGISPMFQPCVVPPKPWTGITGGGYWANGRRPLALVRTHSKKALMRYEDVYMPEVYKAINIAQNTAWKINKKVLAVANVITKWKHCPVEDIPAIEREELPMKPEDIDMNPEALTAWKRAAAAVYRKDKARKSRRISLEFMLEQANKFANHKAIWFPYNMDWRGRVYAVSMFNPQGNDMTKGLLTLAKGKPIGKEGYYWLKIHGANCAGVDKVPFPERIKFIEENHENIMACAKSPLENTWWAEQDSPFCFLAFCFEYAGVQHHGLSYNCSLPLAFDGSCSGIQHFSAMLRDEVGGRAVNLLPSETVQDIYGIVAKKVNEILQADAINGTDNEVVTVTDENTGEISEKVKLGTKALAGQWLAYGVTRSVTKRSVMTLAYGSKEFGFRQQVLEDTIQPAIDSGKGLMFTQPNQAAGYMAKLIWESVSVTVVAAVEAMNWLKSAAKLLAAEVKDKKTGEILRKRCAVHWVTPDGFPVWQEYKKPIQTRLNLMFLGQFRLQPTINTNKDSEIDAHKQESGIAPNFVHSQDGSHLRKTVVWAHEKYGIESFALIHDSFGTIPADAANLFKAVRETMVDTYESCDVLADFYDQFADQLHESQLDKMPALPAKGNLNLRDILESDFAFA
Procedure: Transcription was performed in a 40 mM Tris-HCl (pH 8.0) buffer solution (20 μl) containing 24 mM MgCl2, 2 mM spermidine, 5 mM DTT and 0.01% Triton X-100, in the presence of 1 mM natural NTPs or 1 mM sTP, 2 μCi [γ-^32P]GTP, 2 μM template and 50 units of T7 RNA polymerase (Takara, Kyoto).
The use of [γ-^32P]GTP allowed determination of yields because the transcripts were labeled only at their 5′-end. After incubation at 37° C. for 3 hours, a dye solution (20 μl ) containing 10 M urea and 0.05% BPB was added to stop the reaction. The mixtures were each heated at 75° C. for 3 hours and the products were analyzed on a 20% polyacrylamide-7 M urea gel.
These templates were used to effect transcription for 3 hours, and the transcripts whose 5′-end was labeled with [γ-^32P]GTP were analyzed on a gel. […] The transcripts are labeled with [γ-^32P]GTP at their 5′-end. The relative yield of each transcript was determined in comparison with the yield of a transcript from a template composed only of natural bases, which was set to 100%. Each yield was averaged from 3 to 4 data sets.

[2] = Excitation and fluorescence spectra of the fluorescent bases; assay type: physicochemical; conditions: for fluorescence wavelength, center: excited at the stated excitation wavelength
T7 RNA polymerase [3] = molecular target: T1, T7 RNA polymerase
Procedure: In this example, to study the selectivity of s-Pa base pair during transcription, composition analysis was performed on nucleotides in the full-length (17-mer) transcripts obtained by transcription from Pa, z and natural templates. The transcripts were each internally labeled with any of [α-^32P]UTP, [α-^32P]ATP or [α-^32]GTP, and these transcripts were completely digested with RNase T2 into a nucleoside 3′-phosphate form. The resulting labeled nucleotides were analyzed by 2D-TLC (FIG. 3), and the spots were quantified for each nucleoside 3′-monophosphate (Table 1).
More specifically, transcription was performed in 40 mM Tris-HCl (pH 8.0) buffer (20 μl) containing 24 mM MgCl2, 2 mM spermidine, 5 mM DTT and 0.01% Triton X-100, in the presence of 10 mM GMP, 1 mM natural NTPs (1 mM, N=A, G, C, U), 0, 1 or 3 mM sTP, 2 μCi [γ-^32P]UTP, [γ-^32P]ATP or [γ-^32P]GTP (Amersham), 2 μM template DNA, and 50 units of T7 RNA polymerase (Takara) (Non-patent Documents 14 and 15). After incubation for 3 hours at 37° C., a dye solution was added to stop the transcription.
This mixture was heated at 75° C. for 3 hours and then electrophoresed on a 15% polyacrylamide-7 M urea gel. The full-length product was eluted from the gel and 0.05 A260 units of E. coli tRNA was then added thereto, followed by ethanol precipitation. The transcript was digested at 37° C. for 2 hours with 0.075 U/μl RNase T2 in 15 mM sodium acetate buffer (pH 4.5). […] The digestion products were analyzed by 2D-TLC using a Merck HPTLC plate (100×100 mm, Merck, Darmstadt, Germany). The developing solvents used for the first and second dimensions were isobutyric acid/NH4OH/H2O (66:1:33 v/v/v) and isopropyl alcohol/HCl/H2O (70:15:15 v/v/v), respectively. The products on the TLC plate were analyzed with a bio-imaging analyzer. Each spot was quantified by averaging from 3 to 9 data sets.

T7 RNA polymerase [4] = molecular target: T1, T7 RNA polymerase; conditions: 1 mM yTP; template composed only of natural bases (Entry No. 10)
Procedure: T7 RNA polymerase-mediated transcription reaction was accomplished in a reaction solution containing 40 mM Tris-HCl buffer (pH 8.0), 8 mM MgCl2, 2 mM spermidine, 5 mM DTT, 0.01% Triton X-100, 2 μCi [α-^32P]ATP or 2 μCi [α-^32P]GTP or 2 μCi [α-^32P]CTP or 2 μCi [α-^32P]UTP, 1 mM NTPs, 0-1 mM sTP, 0-1 mM yTP, 0.5 μM template DNA, and 50 units of T7 RNA polymerase (Takara). The transcript was purified by electrophoresis on a 15% polyacrylamide-7 M urea gel, eluted from the gel and then collected by ethanol precipitation in the presence of tRNA (0.05 OD). This sample was dissolved in 10 μl sterilized water, and the resulting solution (8.5 μl) was provided for complete digestion with RNase T2. To the solution (8.5 μl), RNase T2 (1.5 μl, 0.5 U/μl) was added and reacted at 37° C. for 2 hours. A part of this solution was spotted on a TLC plate (Merck, 10 cm×10 cm) and developed two-dimensionally. The developing solutions used for the first and second dimensions were isobutyric acid:concentrated aqueous ammonia:water=66:1:33 (v/v/v) and 2-propanol:hydrochloric acid:water=65:10:25 (v/v/v), respectively.
In this technique, upon incorporation of a radioactive substrate, a nucleotide located at the 5′-side of the substrate can be detected on two-dimensional TLC. […]

[5] = FRET between s or v in 35-mer DNA and FAM-y or FAM-hx-y in 17-mer RNA (DNA/RNA duplexes); assay type: physicochemical; conditions: for FRET with 17-mer RNA using excessive DNA probe: 10 molar equivalents of DNA against the 17-mer RNA
From the text: (§1) DNA containing an artificial base s or v was synthesized as described, for example, in WO 01/05801 or WO 2005/026187 by using a cyanoethylphosphoroamidite derivative of a nucleotide containing an artificial base s or v in accordance with the DNA chemical synthesis method well known in the art. The sequence of the chemically synthesized 35-mer DNA is as follows: 5′-CAN1N2N3[…]-3′ (SEQ ID NO: 20; DNA in which N1N2N3 is CTs or CTv is referred to as DNA35s1 or DNA35v1, respectively; DNA in which N1N2N3 is Css or Cvv is referred to as DNA35s2a or DNA35v2a, respectively; and DNA in which N1N2N3 is sTs or vTv is referred to as DNA35s2b or DNA35v2b, respectively). The resulting DNA was purified by gel electrophoresis.
17-mer RNA incorporating FAM-y or FAM-hx-y at the N′ position (5′-[…]′AGUG-3′; SEQ ID NO: 21) was prepared through T7 transcription using T7 RNA polymerase and a substrate of FAM-y or FAM-hx-y (FAM-yTP or FAM-hx-yTP). […] The reaction mixture was heated at 75° C. for 3 minutes and the 17-mer transcript was purified by gel electrophoresis.
(§2) Fluorescence spectra were measured in a buffer containing 10 mM sodium phosphate (pH 7.0), 100 mM NaCl and 0.1 mM EDTA. Emission spectra were recorded with an excitation wavelength of 350 nm for s and 360 nm for v, respectively. The emission spectral bandpass was set to 5 nm.
The 17-mer RNA site-specifically incorporating FAM-y or FAM-hx-y was hybridized with 35-mer DNA site-specifically containing one or two s or v bases (DNA35s1, 35s2a, 35S2b, 35v1, 35v2a or 35v2b) to measure emission spectra for the DNA/RNA duplex at different temperatures (20° C. and 70° C.).

[6] = Steady-state fluorescence emission of single-stranded DNAs containing s or v; assay type: physicochemical; conditions: single-stranded 35-mer DNA with two artificial bases
From the text: as §1, §2

With 2-formyl-1H-pyrrol-1-yl group [Pa] the “relative yield of full-length (17-mer) transcript” value (T7 RNA polymerase [1]) was 92% and the full-length transcript formation (T7 RNA polymerase [1]) was “full-length products were obtained”.
With “2-oxo-1,3-dihydroimidazol-1-yl group [reference compound]” the “relative yield of full-length (17-mer) transcript” value (T7 RNA polymerase [1]) was 35% and the full-length transcript formation (T7 RNA polymerase [1]) was “no full-length transcript was obtained”.
In the case of `Nc1nc(-c2cccs2)c2nc[nH]c2n1` [s, 2-amino-6-(2-thienyl)-9H-purin-9-yl group], the “excitation wavelength (maximum)” value [2] was 352 nm and 299 nm, the “fluorescence wavelength, center” value [2] was 434 nm and the “quantum yield of the fluorescence” value ([2]; pH 7.0) was 0.41. For the same compound, the “selectivity of s incorporation into RNA opposite Pa in the template DNA” value (T7 RNA polymerase [3]; template containing one Pa base, sTP 1 mM (Table 1, Entry No. 1)) was 97%, the “selectivity of s incorporation at the first position” value (T7 RNA polymerase [3]; template containing two Pa bases) was 95% and the “selectivity of s incorporation at the second position” value (T7 RNA polymerase [3]; template containing two Pa bases, sTP 1 mM) was 84-87%. The “selectivity of s incorporation at the second position” value (T7 RNA polymerase [3]; template containing two Pa bases, sTP 3 mM) was 89-93%.
With `Nc1nc(-c2cccs2)c2ncn([C@@H]3O[C@H](COP(=O)(O)OP(=O)(O)OP(=O)(O)O)[C@@H](O)[C@H]3O)c2n1` [sTP, 2-amino-6-(2-thienyl)-9-(1-β-D-ribofuranosyl)purine 5′-triphosphate] the “misincorporation of sTP opposite natural bases in the template” value (T7 RNA polymerase [3]; Table 1, Entry Nos. 4 and 6) was “no misincorporation”.
For `c1csc(-c2ncnc3[nH]cnc23)c1` [s′, 6-(2-thienyl)-9H-purin-9-yl group], the “excitation wavelength (maximum)” value [2] was 325 nm and the “fluorescence wavelength, center” value [2] was 381 nm.
With `Nc1nc(-c2nccs2)c2nc[nH]c2n1` [v, 2-amino-6-(2-thiazolyl)-9H-purin-9-yl group] the “excitation wavelength (maximum)” value [2] was 363 nm and the “fluorescence wavelength, center” value [2] was 461 nm.
In the case of `O=c1[nH]cccc1C1OC(COP(=O)(O)OP(=O)(O)OP(=O)(O)O)C(O)C1O` (stereo not shown) [yTP], the “incorporation of yp opposite natural template bases” value (T7 RNA polymerase [4]) was “a slight amount of yp was incorporated”.
In the case of “DNA35s1: 35-mer DNA (SEQ ID NO: 20) in which N1N2N3 is CTs (DNA CACTNCTCGGGATTCCCTATAGTGAGTCGTATTAT; DNA, [s] at 5, backbone, methylation of C and the base at N not given here)”, the “FRET with 17-mer RNA using excessive DNA probe” value (“FRET with 17-mer RNA” for short) [5] was “completely buried in the background fluorescence”, the “FRET in duplex with 17-mer RNA incorporating FAM-y or FAM-hx-y” value (from here on “FRET in duplex”) ([5]; 20° C.) was “FRET occurred” and the “FRET in duplex” value ([5]; duplex denatured at 70° C.) was “FRET was significantly reduced”.
In the case of “DNA35s2a: 35-mer DNA (SEQ ID NO: 20) in which N1N2N3 is Css (DNA CACNNCTCGGGATTCCCTATAGTGAGTCGTATTAT; DNA, [s] at 4, 5, backbone, methylation of C and the base at N not given here)”, the “FRET with 17-mer RNA” value [5] was “FRET was clearly observed”, the “FRET in duplex” value ([5]; 20° C.) was “FRET occurred efficiently” and the “fluorescence intensity of single-stranded DNA” value (“fluorescence intensity” below) [6] was “significantly decreased”.
For “DNA35s2b: 35-mer DNA (SEQ ID NO: 20) in which N1N2N3 is sTs (DNA CANTNCTCGGGATTCCCTATAGTGAGTCGTATTAT; DNA, [s] at 3, 5, backbone, methylation of C and the base at N not given here)”, the “fluorescence intensity” value [6] was “no significant decrease”.
For “DNA35v1: 35-mer DNA (SEQ ID NO: 20) in which N1N2N3 is CTv (DNA CACTNCTCGGGATTCCCTATAGTGAGTCGTATTAT; DNA, [v] at 5, backbone, methylation of C and the base at N not given here)”, the “FRET with 17-mer RNA” value [5] was “completely buried in the background fluorescence”, the “FRET in duplex” value ([5]; 20° C.) was “FRET occurred” and the “FRET in duplex” value ([5]; duplex denatured at 70° C.) was “FRET was significantly reduced”.
For “DNA35v2a: 35-mer DNA (SEQ ID NO: 20) in which N1N2N3 is Cvv (DNA CACNNCTCGGGATTCCCTATAGTGAGTCGTATTAT; DNA, [v] at 4, 5, backbone, methylation of C and the base at N not given here)”, the “FRET with 17-mer RNA” value [5] was “FRET was clearly observed”, the “FRET in duplex” value ([5]; 20° C.) was “FRET occurred efficiently” and the “fluorescence intensity” value [6] was “significantly decreased”.
With “DNA35v2b: 35-mer DNA (SEQ ID NO: 20) in which N1N2N3 is vTv (DNA CANTNCTCGGGATTCCCTATAGTGAGTCGTATTAT; DNA, [v] at 3, 5, backbone, methylation of C and the base at N not given here)” the “fluorescence intensity” value [6] was “no significant decrease”.
